# Assay results from publication PMC9232501, “Results of the phase I CCTG IND.231 trial of CX-5461 in patients with advanced solid tumors enriched for DNA-repair deficiencies” (Nature Communications, 2022).
# Marks after values point to notes of the source that are not given here.
# Columns and labels:
# [1] = test system: BRCA2 and BRCA1-deficient tumor models; conditions: in vitro and in vivo, independently of RNA polymerase 1 inhibition; cited from earlier work
# [2] = test system: G-quadruplex (G4) DNA; set-up: method as in PMID 28211448; conditions: in vitro and in vivo; cited from earlier work
# [3] = test system: patients with advanced solid tumors; assay: Phase I dose escalation: safety, tolerability, dose-limiting toxicity (CTCAE v4.0)
# From the text: Doses were escalated using a 3 + 3 design, which allowed 3 or 4 patients to be initially enrolled in each dose level. […] The MAD was defined as the dose level at which ≥2/3 or ≥2/6 patients experienced dose-limiting toxicity. The RP2D was defined as the next lower dose below the MAD.
# DLT included the following drug-related AEs occurring during cycle 1: grade 3 phototoxicity or grade 2 phototoxicity with blistering lasting ≥7 days, if adequate prevention was used; other grades 3 or 4 non-hematologic toxicity (excluding inadequately managed nausea and vomiting, alopecia or grade 3 fatigue lasting <7 days); grade 4 myelosuppression ≥7 days, febrile neutropenia or ≥grade 3 thrombocytopenic bleeding; or other toxicities of concern including those requiring ≥14 days delay in next cycle.
# The starting dose was 50 mg/m^2 d1 and 8. An expansion cohort at the RP2D of 10-20 patients with breast cancer and BRCA1/2 (germline) or relevant somatic aberrations was planned.
# AEs were assessed according to National Cancer Institute Common Terminology Criteria for Adverse Events (CTCAE) v4.0.
# [4] = 325 mg/m^2 d1,8,15, N patients 4
# [5] = 650 mg/m^2 d1,8,15, N patients 5
# [6] = 40 treated patients, all dose levels
# [7] = 475* mg/m^2 d1,8,15, N patients 6
smiles,measurement,setting,value
Cc1cnc(CNC(=O)c2c(=O)c3ccc(N4CCCN(C)CC4)nc3n3c2sc2ccccc23)cn1 [CX-5461],synthetic lethality,[1],synthetically lethal
same,G4 binding and stabilization,[2],potent G4 binder and stabilizer
same,"Diarrhea, any causality, all grades (patients)","[3]; 50 mg/m^2 d1,8, N patients 4",2
same,"Dry eye, any causality, all grades (patients)","[3]; 50 mg/m^2 d1,8, N patients 4",1
same,"Fatigue, any causality, all grades (patients)","[3]; 50 mg/m^2 d1,8, N patients 4",4
same,"Headache, any causality, all grades (patients)","[3]; 50 mg/m^2 d1,8, N patients 4",1
same,"Nausea, any causality, all grades (patients)","[3]; 50 mg/m^2 d1,8, N patients 4",3
same,"Palmar–plantar erythrodysesthesia syndrome, any causality, all grades (patients)","[3]; 50 mg/m^2 d1,8, N patients 4",1
same,"Phototoxicity, any causality, all grades (patients)","[3]; 50 mg/m^2 d1,8, N patients 4",2
same,"Phototoxicity, number in parentheses (undefined in table; fits grade 3–4 count)","[3]; 50 mg/m^2 d1,8, N patients 4",1
same,"Diarrhea, any causality, all grades (patients)","[3]; 100 mg/m^2 d1,8, N patients 4",1
same,"Dry eye, any causality, all grades (patients)","[3]; 100 mg/m^2 d1,8, N patients 4",1
same,"Eye phototoxicity, any causality, all grades (patients)","[3]; 100 mg/m^2 d1,8, N patients 4",1
same,"Fatigue, any causality, all grades (patients)","[3]; 100 mg/m^2 d1,8, N patients 4",3
same,"Headache, any causality, all grades (patients)","[3]; 100 mg/m^2 d1,8, N patients 4",3
same,"Mucositis oral, any causality, all grades (patients)","[3]; 100 mg/m^2 d1,8, N patients 4",2
same,"Nausea, any causality, all grades (patients)","[3]; 100 mg/m^2 d1,8, N patients 4",3
same,"Palmar–plantar erythrodysesthesia syndrome, any causality, all grades (patients)","[3]; 100 mg/m^2 d1,8, N patients 4",1
same,"Phototoxicity, any causality, all grades (patients)","[3]; 100 mg/m^2 d1,8, N patients 4",1
same,"Diarrhea, any causality, all grades (patients)","[3]; 150 mg/m^2 d1,8, N patients 4",1
same,"Dry eye, any causality, all grades (patients)","[3]; 150 mg/m^2 d1,8, N patients 4",2
same,"Fatigue, any causality, all grades (patients)","[3]; 150 mg/m^2 d1,8, N patients 4",3
same,"Headache, any causality, all grades (patients)","[3]; 150 mg/m^2 d1,8, N patients 4",2
same,"Mucositis oral, any causality, all grades (patients)","[3]; 150 mg/m^2 d1,8, N patients 4",1
same,"Nausea, any causality, all grades (patients)","[3]; 150 mg/m^2 d1,8, N patients 4",4
same,"Palmar–plantar erythrodysesthesia syndrome, any causality, all grades (patients)","[3]; 150 mg/m^2 d1,8, N patients 4",1
same,"Phototoxicity, any causality, all grades (patients)","[3]; 150 mg/m^2 d1,8, N patients 4",1
same,"ALT, Grade 3 or 4 (patients)","[3]; 150 mg/m^2 d1,8, N pts 4",2
same,"AST, Grade 3 or 4 (patients)","[3]; 150 mg/m^2 d1,8, N pts 4",2
same,"Alkaline phosphatase, Grade 3 or 4 (patients)","[3]; 150 mg/m^2 d1,8, N pts 4",1
same,"Bilirubin, Grade 3 or 4 (patients)","[3]; 150 mg/m^2 d1,8, N pts 4",1
same,"Neutropenia, Grade 3 or 4 (patients)","[3]; 150 mg/m^2 d1,8, N pts 4",1
same,"Thrombocytopenia, Grade 3 or 4 (patients)","[3]; 150 mg/m^2 d1,8, N pts 4",1
same,"Diarrhea, any causality, all grades (patients)","[3]; 200 mg/m^2 d1,8, N patients 4",2
same,"Dry eye, any causality, all grades (patients)","[3]; 200 mg/m^2 d1,8, N patients 4",1
same,"Fatigue, any causality, all grades (patients)","[3]; 200 mg/m^2 d1,8, N patients 4",2
same,"Nausea, any causality, all grades (patients)","[3]; 200 mg/m^2 d1,8, N patients 4",3
same,"Phototoxicity, any causality, all grades (patients)","[3]; 200 mg/m^2 d1,8, N patients 4",2
same,"ALT, Grade 3 or 4 (patients)","[3]; 200 mg/m^2 d1,8, N pts 4",1
same,"AST, Grade 3 or 4 (patients)","[3]; 200 mg/m^2 d1,8, N pts 4",1
same,"Anemia, Grade 3 or 4 (patients)","[3]; 200 mg/m^2 d1,8, N pts 4",1
same,"Fatigue, any causality, all grades (patients)","[3]; 250 mg/m^2 d1,8, N patients 3",2
same,"Headache, any causality, all grades (patients)","[3]; 250 mg/m^2 d1,8, N patients 3",1
same,"Mucositis oral, any causality, all grades (patients)","[3]; 250 mg/m^2 d1,8, N patients 3",1
same,"Nausea, any causality, all grades (patients)","[3]; 250 mg/m^2 d1,8, N patients 3",2
same,"Palmar–plantar erythrodysesthesia syndrome, any causality, all grades (patients)","[3]; 250 mg/m^2 d1,8, N patients 3",2
same,"Phototoxicity, any causality, all grades (patients)","[3]; 250 mg/m^2 d1,8, N patients 3",3
same,"Phototoxicity, number in parentheses (undefined in table; fits grade 3–4 count)","[3]; 250 mg/m^2 d1,8, N patients 3",1
same,"Dry eye, any causality, all grades (patients)",[3]; [4],1
same,"Eye phototoxicity, any causality, all grades (patients)",[3]; [4],1
same,"Fatigue, any causality, all grades (patients)",[3]; [4],2
same,"Nausea, any causality, all grades (patients)",[3]; [4],1
same,"Palmar–plantar erythrodysesthesia syndrome, any causality, all grades (patients)",[3]; [4],1
same,"Phototoxicity, any causality, all grades (patients)",[3]; [4],4
same,"Phototoxicity, number in parentheses (undefined in table; fits grade 3–4 count)",[3]; [4],1
same,"AST, Grade 3 or 4 (patients)","[3]; 325 mg/m^2 d1,8,15, N pts 4",1
same,"Neutropenia, Grade 3 or 4 (patients)","[3]; 325 mg/m^2 d1,8,15, N pts 4",1
same,"Diarrhea, any causality, all grades (patients)","[3]; 325 mg/m^2 d1,8, N patients 3",1
same,"Fatigue, any causality, all grades (patients)","[3]; 325 mg/m^2 d1,8, N patients 3",3
same,"Fatigue, number in parentheses (undefined in table; fits grade 3–4 count)","[3]; 325 mg/m^2 d1,8, N patients 3",1
same,"Nausea, any causality, all grades (patients)","[3]; 325 mg/m^2 d1,8, N patients 3",2
same,"Nausea, number in parentheses (undefined in table; fits grade 3–4 count)","[3]; 325 mg/m^2 d1,8, N patients 3",1
same,"Palmar–plantar erythrodysesthesia syndrome, any causality, all grades (patients)","[3]; 325 mg/m^2 d1,8, N patients 3",1
same,"Phototoxicity, any causality, all grades (patients)","[3]; 325 mg/m^2 d1,8, N patients 3",1
same,"Eye phototoxicity, any causality, all grades (patients)","[3]; 475 mg/m^2 d1,8, N patients 3",1
same,"Fatigue, any causality, all grades (patients)","[3]; 475 mg/m^2 d1,8, N patients 3",2
same,"Mucositis oral, any causality, all grades (patients)","[3]; 475 mg/m^2 d1,8, N patients 3",1
same,"Nausea, any causality, all grades (patients)","[3]; 475 mg/m^2 d1,8, N patients 3",1
same,"Palmar–plantar erythrodysesthesia syndrome, any causality, all grades (patients)","[3]; 475 mg/m^2 d1,8, N patients 3",1
same,"Phototoxicity, any causality, all grades (patients)","[3]; 475 mg/m^2 d1,8, N patients 3",3
same,"Diarrhea, any causality, all grades (patients)",[3]; [5],1
same,"Dry eye, any causality, all grades (patients)",[3]; [5],1
same,"Eye phototoxicity, any causality, all grades (patients)",[3]; [5],3
same,"Fatigue, any causality, all grades (patients)",[3]; [5],3
same,"Fatigue, number in parentheses (undefined in table; fits grade 3–4 count)",[3]; [5],1
same,"Headache, any causality, all grades (patients)",[3]; [5],1
same,"Mucositis oral, any causality, all grades (patients)",[3]; [5],2
same,"Nausea, any causality, all grades (patients)",[3]; [5],3
same,"Palmar–plantar erythrodysesthesia syndrome, any causality, all grades (patients)",[3]; [5],1 (1)
same,"Palmar–plantar erythrodysesthesia syndrome, number in parentheses (undefined in table; fits grade 3–4 count)",[3]; [5],1 (1)
same,"Phototoxicity, any causality, all grades (patients)",[3]; [5],3
same,"Phototoxicity, number in parentheses (undefined in table; fits grade 3–4 count)",[3]; [5],1
same,"Alkaline phosphatase, Grade 3 or 4 (patients)","[3]; 650 mg/m^2 d1,8,15, N pts 5",1
same,"Neutropenia, Grade 3 or 4 (patients)","[3]; 650 mg/m^2 d1,8,15, N pts 5",2
same,toxicity to ionizing radiation,[3]; 13 patients who received radiotherapy during or following treatment,no excess toxicity to ionizing radiation
same,"Treatment-related Dry eye, Grade 3–4, %",[3]; 40 treated patients,0%
same,"Treatment-related Dry eye, Total, %",[3]; 40 treated patients,10%
same,"Treatment-related Eye phototoxicity, Grade 1–2, %",[3]; 40 treated patients,20%
same,"Treatment-related Eye phototoxicity, Grade 3–4, %",[3]; 40 treated patients,0%
same,"Treatment-related Eye phototoxicity, Total, %",[3]; 40 treated patients,20%
same,"Treatment-related Headache, Grade 1–2, %",[3]; 40 treated patients,12.5%
same,"Treatment-related Headache, Grade 3–4, %",[3]; 40 treated patients,0%
same,"Treatment-related Headache, Total, %",[3]; 40 treated patients,12.5%
same,"Treatment-related Mucositis oral, Grade 1–2, %",[3]; 40 treated patients,15%
same,"Treatment-related Mucositis oral, Grade 3–4, %",[3]; 40 treated patients,0%
same,"Treatment-related Mucositis oral, Total, %",[3]; 40 treated patients,15%
same,"Treatment-related Nausea, Grade 1–2, %",[3]; 40 treated patients,42.5%
same,"Treatment-related Nausea, Grade 3–4, %",[3]; 40 treated patients,2.5%
same,"Treatment-related Nausea, Total, %",[3]; 40 treated patients,45%
same,"Treatment-related Palmar–plantar erythrodysesthesia, Grade 1–2, %",[3]; 40 treated patients,20%
same,"Treatment-related Palmar–plantar erythrodysesthesia, Grade 3–4, %",[3]; 40 treated patients,2.5%
same,"Treatment-related Palmar–plantar erythrodysesthesia, Total, %",[3]; 40 treated patients,22.5%
same,"Treatment-related Phototoxicity (skin), Grade 3–4, %",[3]; 40 treated patients,15%
same,"Treatment-related Phototoxicity (skin), Total, %",[3]; 40 treated patients,60%
same,grade 3 or 4 related AE: nausea,[3]; [6],2.5%
same,grade 3 or 4 related AE: palmar–plantar erythrodysesthesia syndrome,[3]; [6],2.5%
same,grade 3 or 4 related AE: skin phototoxicity,[3]; [6],15%
same,"Diarrhea, any causality, all grades (patients)",[3]; [7],1
same,"Eye phototoxicity, any causality, all grades (patients)",[3]; [7],2
same,"Fatigue, any causality, all grades (patients)",[3]; [7],5
same,"Fatigue, number in parentheses (undefined in table; fits grade 3–4 count)",[3]; [7],2
same,"Headache, any causality, all grades (patients)",[3]; [7],2
same,"Nausea, any causality, all grades (patients)",[3]; [7],6
same,"Palmar–plantar erythrodysesthesia syndrome, any causality, all grades (patients)",[3]; [7],1
same,"Phototoxicity, any causality, all grades (patients)",[3]; [7],4
same,"Phototoxicity, number in parentheses (undefined in table; fits grade 3–4 count)",[3]; [7],2
same,"Anemia, Grade 3 or 4 (patients)","[3]; 475* mg/m^2 d1,8,15, N pts 6",2
same,Dose-limiting toxicities (number),"[3]; Dose level 9, 650 mg/m^2/dose, Day 1, 8 & 15 Q4 weeks, 5 enrolled, one occurred after cycle 1",2 **
same,maximal administered dose (MAD),"[3]; d1, 8, 15 (DL9)",650 mg/m^2
same,recommended phase II dose (RP2D),"[3]; days 1, 8 and 15 every 4 weeks, 60-minute intravenous infusion",475 mg/m^2
same,SAEs considered related to CX-5461,"[3]; grade 3 phototoxicity (DL0), grade 2 eye phototoxicity (DL8), grade 3 phototoxicity (DL8)",3
same,serious AEs (SAEs) reported,[3]; in 13 patients,Sixteen
same,dose-limiting toxicity (kind),[3]; in vivo,phototoxicity
same,participants with dose omission because of phototoxicity,[3]; in vivo,six
same,participants with dose reductions because of phototoxicity,[3]; in vivo,two
same,patients discontinuing therapy because of phototoxicity,[3]; in vivo,one
